Like-named read-outs stand apart in the source and are kept apart here. One block for each molecule: values may come before it.
Columns and labels:
[1] = system: detached leaf segments of Triticum aestivum cv. Hereward; experiment: Senescence bioassay on wheat leaf segments in dark/light conditions; conditions: foliar, 168 h, read-out: Senescence bioassay (IC50)
Procedure: (§1) Seeds of winter wheat, Triticum aestivum cv. Hereward, were washed under running water for 24 hours and then sown on perlite soaked with Hogland's solution. They were placed in the growth chamber at 25° C. with a 16/8 h light period at 50 μmol·m^−2·s^−1. After 7 days, the first leaf was fully developed and the second leaf had started to grow. A tip section of the first leaf, approximately 4 cm long, was removed from 4 seedlings and trimmed slightly to a combined weight of 100 mg. The basal ends of the four leaf tips were placed into the 96-wells plate containing 150 μL of the tested derivative solution each. The entire plate was inserted into a plastic box lined with paper tissues soaked in distilled water to prevent leaf sections from drying out. After 96 h incubation in the dark at 25° C., the leaves were removed and chlorophyll extracted by heating at 80° C. for 10 min in 5 mL of 80% ethanol (v/v). The sample volume was then restored to 5 mL by the addition of 80% ethanol (v/v). The absorbance of the extract was recorded at 665 nm. In addition, chlorophyll extracts from fresh leaves and leaf tips incubated in deionised water were measured. The results are means of five replicates and the entire test was repeated at least twice. […] The compounds to be tested were dissolved in dimethylsulfoxide (DMSO) and the solution brought up to 10^−3 M with distilled water. […] The IC50 values were determined for standard (BAP) and novel tested compounds.
The ability of the novel compounds to retard chlorophyll degradation in detached wheat leaves was tested also in the light conditions. The experiment was performed as described in Example 7 with modifications as follows—the incubation of the leaves with the compounds was done in the dark/light conditions 8/16 (light—100 μmol·m^−2·s^−1) at 22° C. for 7 days. […] The newly prepared substituted 1,2,3-thiadiazol-5-yl urea derivatives of the invention are much stronger anti-senescent compounds in comparison to the BAP in retarding senescence under optimal (dark/light) conditions.

[2] = system: detached leaves of Triticum aestivum cv. Hereward; experiment: Membrane lipid peroxidation (MDA, TBA method) in detached wheat leaves in the dark; conditions: for MDA: four days in the dark
Procedure: A typical symptom associated with senescence as a direct consequence of increased reactive oxygen species is membrane lipid peroxidation which produces malondialdehyde (MDA). Therefore the levels of MDA, a decomposition product of lipid peroxidation, were measured in detached wheat leaves that were exposed to the prepared novel derivatives or BAP for four days in the dark as described in Example 7. MDA levels were measured using a thiobarbituric acid (TBA) method. In detail, 100 mg of fresh plant material was homogenized by high speed shaking in a ball mill (MM301, Retsch, Germany) with 1 mL of 70% methanol. The crude extract was centrifuged at 10,000×g for 5 min, and 100 μL aliquot of supernatant was vortexed with 100 μL of 0.5% (w/v) TBA containing 0.1% (w/v) trichloroacetic acid, and the resulting solution was then incubated for 30 min at 95° C. The samples were quickly cooled on ice and centrifuged for 5 min at 1000 g. The absorbance of supernatant was measured at 532 nm with background subtraction at 600 nm and the amount of MDA-TBA complex was calculated from the coefficient of absorbance 155 mM^−1 cm^−1.

[3] = system: spring barley (Hordeum vulgare), malting variety Bojos; experiment: Field experiment, spring barley, pre-soaked seeds; format: in vivo; conditions: seeds pre-soaked in 50 μM solution
Procedure: Seeds of spring barley (Hordeum vulgare), malting variety Bojos were pre-soaked in 50 μM solution of compound 6 or 65 and sown as described in example 15. For each variant at least 50 plants were used to obtain morphology parameters. Statistical evaluation was executed in stat. program PAST v. 2.17c.

[4] = system: Arabidopsis thaliana (wild-type Col-0); experiment: Root growth and lateral root formation of Arabidopsis; format: in vivo; conditions: 10 nM, two weeks after transfer
Procedure: To investigate in vivo effect of the new derivatives on the root growth and development, seeds of Arabidopsis thaliana (wild-type Col-0) were surface sterilized and sown on vertical plates on half-strength Murashige-Skoog medium (supplied with 0.1% sucrose and 6 g/L phytagel) containing 10 nM BAP or 10 nM 1,2,3-thiadiazol-5-yl-urea derivative, or 0.01% DMSO (solvent control). After vernalization (4 days in the dark, 4° C.) plates were transferred into the growth chamber (22° C., 16/8 light/dark). Two weeks after transfer, seedlings were photographed and root elongation and lateral root formation was scored using Scion image software (Scion Corp., Frederick, Md., USA). At least 40 plants were measured for each treatment.

wheat leaves = experiment: Ethylene production (defoliating activity) assay; design: species or system Triticum aestivum; conditions: 10 μM; for Ethylene produced: 96 h in the dark at 25° C., control 270 (±15)
Procedure: We investigated the effect of the compounds of the invention on ethylene production in wheat leaves. The leaves were obtained as described in Example 8, placed in 5 mL glass vials and immersed at 10 μM solutions of tested compounds of the invention or TDZ. Distilled water was used as a control treatment. After 96 h incubation in the dark at 25° C., 1 mL of air was taken from the vials and content of ethylene in it was determined using gas chromatography with the flame ionization detector (GC-FID) method described by Fišerová et al. (Fišerová H, Kula E, Klemš M, Reinöhl V (2001) Phytohormones as indicators of the degree of damage in birch (Betula pendula). Biológia 56: 405-409).

[5] = system: detached leaf segments of Triticum aestivum cv. Hereward; experiment: Senescence bioassay on wheat leaf segments in dark conditions; conditions: Triticum aestivum, foliar, 96 h, read-out: Senescence bioassay (IC50)
Procedure: as §1

[6] = Toxicity towards human skin fibroblasts (Calcein AM assay); format: cell-based
Procedure: Cytotoxicity of the compounds to human skin fibroblasts (BJ cell line) was determined in a standard Calceinovém AM test. Cells were maintained in plastic tissue culture flasks and grown in Dulbecco's modified Eagle's medium for cell culture (DMEM) at 37° C. in 5% CO2 and 100% humidity. Cells were placed into 96-well microtiter plates (Nunc, Denmark) and after 12 hours pre-incubation, the tested compound was added to a final concentration ranging from […]. Cells were incubated for 72 hours. At the end of incubation period Calcein AM was added in PBS to a final concentration of […]. After 1 hour of incubation fluorescence was measured at 485/538 nm (ex/em wavelength) using Fluoroskan Ascent (Labsystems, Finland). IC50 values (the concentration causing reduction of calcein AM conversion to 50%) were calculated from the curves obtained. All experiments were repeated four times with a maximum deviation of 15%. Due to the limited solubility of substances in water, all the tested compounds were dissolved in DMSO and diluted with water to a final concentration.

[7] = dark/light 8/16, 22° C., 7 days
[8] = dark, 25° C., chlorophyll absorbance 665 nm

Compound: COCCNC(=O)Nc1cnns1 [Compound 6, 1-(2-methoxy-ethyl)-3-[1,2,3]thiadiazol-5-yl-urea]
IC50 [1, 7]: 0.03 µM
level of membrane lipid peroxidation during dark senescence reduced to ([2]; compared to untreated control): 44.6%
MDA [2]: 9.6 (±0.7) nmol/g FW
grain yield compared to untreated control [3]: 107.3%
Lateral root number [4]: 17 (±9)
Primary root lenght [4]: 48 (±15) mm
Ethylene produced (wheat leaves): 275 (±14) nL/g FW
IC50 [5, 8]: 0.95 µM
CC50 at 72 h [6]: > 100 µM

Compound: O=C(NCCCl)Nc1cnns1 [Compound 65, 1-(2-Chloro-ethyl)-3-[1,2,3]thiadiazol-5-yl-urea]
IC50 [1]: 0.7 µM
MDA [2]: 16.4 (±0.5) nmol/g FW
grain yield compared to untreated control [3]: 109.0%
Lateral root number [4]: 12 (±8)
Primary root lenght [4]: 36 (±8) mm
Ethylene produced (wheat leaves): 335 (±25) nL/g FW
IC50 [5]: 14 µM
CC50 at 72 h ([6]; BJ cell line, 72 hours, read-out: not toxic up to the highest tested concentration (Calcein AM IC50)): > 100 µM

IC50 [1, 7]: 0.03 µM
IC50 [5, 8]: 1.2 µM
Compound: O=C(NCc1ccco1)Nc1cnns1 [Compound 84, N-furfuryl-N′-1,2,3-thiadiazol-5-yl-urea]
MDA [2]: 12.7 (±1.1) nmol/g FW
Lateral root number [4]: 13 (±6)
Primary root lenght [4]: 30 (±6) mm
elevation of ethylene production compared to untreated control (wheat leaves; 96 h): 25%
Ethylene produced (wheat leaves): 337 (±28) nL/g FW
CC50 at 72 h [6]: > 100 µM

From US9993002B2, “1,2,3-thiadiazol-5yl-urea derivatives, use thereof for regulating plant senescence and preparations containing these derivatives” (USTAV EXPERIMENTALNI BOTANIKY AV CR, V.V.I., priority 2014, dated 2018)
